Test results published in ChEMBL document CHEMBL4330132, “5-Keto-3-cyano-2,4-diaminothiophenes as selective maternal embryonic leucine zipper kinase inhibitors” (Bioorg Med Chem Lett, 2019).

What was measured:
[1] = target: Cyclin-dependent kinase 11B (Homo sapiens) (UniProt P21127); experiment: Binding affinity to wild-type human partial length CDC2L1 (P353 to G692 residues) expressed in bacterial expression system assessed as residual binding level at 1 uM by Kinomescan method relative to control
[2] = target: Tyrosine-protein kinase ITK/TSK (Homo sapiens) (UniProt Q08881); experiment: Binding affinity to wild-type human partial length ITK (R335 to L620 residues) expressed in bacterial expression system assessed as residual binding level at 1 uM by Kinomescan method relative to control
[3] = target: Ephrin type-A receptor 1 (Homo sapiens) (UniProt P21709); experiment: Binding affinity to wild-type human partial length EPHA1 (V588 to I913 residues) expressed in bacterial expression system assessed as residual binding level at 1 uM by Kinomescan method relative to control
[4] = target: Casein kinase I isoform gamma-3 (Homo sapiens) (UniProt Q9Y6M4); experiment: Binding affinity to wild-type human full length CSNK1G3 (M1 to K447 residues) expressed in bacterial expression system assessed as residual binding level at 1 uM by Kinomescan method relative to control
[5] = target: Serine/threonine-protein kinase MARK1 (Homo sapiens) (UniProt Q9P0L2); experiment: Binding affinity to wild-type human partial length MARK1 (Q30 to T341 residues) expressed in bacterial expression system assessed as residual binding level at 1 uM by Kinomescan method relative to control
[6] = target: Serine/threonine-protein kinase 36 (Homo sapiens) (UniProt Q9NRP7); experiment: Binding affinity to wild-type human partial length STK36 (M1 to T271 residues) expressed in bacterial expression system assessed as residual binding level at 1 uM by Kinomescan method relative to control
[7] = target: MAP/microtubule affinity-regulating kinase 4 (Homo sapiens) (UniProt Q96L34); experiment: Binding affinity to wild-type human partial length MARK4 (K29 to G340 residues) expressed in bacterial expression system assessed as residual binding level at 1 uM by Kinomescan method relative to control
Chain of MAP/microtubule affinity-regulating kinase 4 (Homo sapiens) (Q96L34 whole entry, the tested form may be a part): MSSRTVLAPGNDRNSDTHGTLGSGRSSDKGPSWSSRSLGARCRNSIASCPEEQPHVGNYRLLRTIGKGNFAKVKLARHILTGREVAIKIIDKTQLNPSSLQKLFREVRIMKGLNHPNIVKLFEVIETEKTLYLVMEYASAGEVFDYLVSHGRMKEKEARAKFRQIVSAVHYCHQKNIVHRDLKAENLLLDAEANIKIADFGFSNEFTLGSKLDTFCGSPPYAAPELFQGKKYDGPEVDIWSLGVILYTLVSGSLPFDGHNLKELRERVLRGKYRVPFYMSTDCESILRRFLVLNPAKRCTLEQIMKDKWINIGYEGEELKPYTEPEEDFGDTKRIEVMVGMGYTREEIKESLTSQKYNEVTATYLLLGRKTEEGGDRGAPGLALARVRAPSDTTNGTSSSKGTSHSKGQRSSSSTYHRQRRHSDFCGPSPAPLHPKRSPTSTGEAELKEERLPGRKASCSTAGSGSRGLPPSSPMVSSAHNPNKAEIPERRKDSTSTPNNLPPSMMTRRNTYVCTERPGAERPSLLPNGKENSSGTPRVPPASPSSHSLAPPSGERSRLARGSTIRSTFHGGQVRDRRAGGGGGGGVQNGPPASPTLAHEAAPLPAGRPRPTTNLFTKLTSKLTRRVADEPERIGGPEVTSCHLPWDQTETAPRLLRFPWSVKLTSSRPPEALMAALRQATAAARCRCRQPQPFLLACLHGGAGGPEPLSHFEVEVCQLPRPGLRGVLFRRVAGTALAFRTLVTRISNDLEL

Chain of Ephrin type-A receptor 1 (Homo sapiens) (P21709 whole entry, the tested form may be a part, canonical isoform): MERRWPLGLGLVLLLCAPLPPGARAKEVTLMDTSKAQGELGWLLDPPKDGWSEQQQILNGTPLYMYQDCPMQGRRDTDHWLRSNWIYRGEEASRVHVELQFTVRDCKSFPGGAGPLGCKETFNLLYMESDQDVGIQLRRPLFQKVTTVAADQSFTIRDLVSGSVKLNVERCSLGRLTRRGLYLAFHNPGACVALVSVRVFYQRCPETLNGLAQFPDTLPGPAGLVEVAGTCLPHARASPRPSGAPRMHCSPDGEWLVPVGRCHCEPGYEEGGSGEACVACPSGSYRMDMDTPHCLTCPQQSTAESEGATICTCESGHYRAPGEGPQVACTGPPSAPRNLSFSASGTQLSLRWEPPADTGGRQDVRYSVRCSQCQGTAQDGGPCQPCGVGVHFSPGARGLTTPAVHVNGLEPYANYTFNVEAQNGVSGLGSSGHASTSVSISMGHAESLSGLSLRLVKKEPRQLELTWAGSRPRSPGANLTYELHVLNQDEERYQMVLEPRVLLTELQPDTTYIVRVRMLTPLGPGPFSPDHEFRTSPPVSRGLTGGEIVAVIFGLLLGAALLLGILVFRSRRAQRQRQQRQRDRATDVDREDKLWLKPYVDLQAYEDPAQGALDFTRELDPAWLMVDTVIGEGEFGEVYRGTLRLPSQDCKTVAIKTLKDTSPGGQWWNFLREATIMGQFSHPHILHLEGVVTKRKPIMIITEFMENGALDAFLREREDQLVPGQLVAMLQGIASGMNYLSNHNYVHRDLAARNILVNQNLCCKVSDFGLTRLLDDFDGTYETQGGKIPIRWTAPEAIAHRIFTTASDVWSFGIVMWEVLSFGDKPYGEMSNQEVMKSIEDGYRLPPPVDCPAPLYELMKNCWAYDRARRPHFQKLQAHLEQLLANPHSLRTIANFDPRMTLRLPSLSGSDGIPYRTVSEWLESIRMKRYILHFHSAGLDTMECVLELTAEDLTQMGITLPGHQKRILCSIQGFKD
Chain of Serine/threonine-protein kinase MARK1 (Homo sapiens) (Q9P0L2 whole entry, looked up, the tested form may be a part): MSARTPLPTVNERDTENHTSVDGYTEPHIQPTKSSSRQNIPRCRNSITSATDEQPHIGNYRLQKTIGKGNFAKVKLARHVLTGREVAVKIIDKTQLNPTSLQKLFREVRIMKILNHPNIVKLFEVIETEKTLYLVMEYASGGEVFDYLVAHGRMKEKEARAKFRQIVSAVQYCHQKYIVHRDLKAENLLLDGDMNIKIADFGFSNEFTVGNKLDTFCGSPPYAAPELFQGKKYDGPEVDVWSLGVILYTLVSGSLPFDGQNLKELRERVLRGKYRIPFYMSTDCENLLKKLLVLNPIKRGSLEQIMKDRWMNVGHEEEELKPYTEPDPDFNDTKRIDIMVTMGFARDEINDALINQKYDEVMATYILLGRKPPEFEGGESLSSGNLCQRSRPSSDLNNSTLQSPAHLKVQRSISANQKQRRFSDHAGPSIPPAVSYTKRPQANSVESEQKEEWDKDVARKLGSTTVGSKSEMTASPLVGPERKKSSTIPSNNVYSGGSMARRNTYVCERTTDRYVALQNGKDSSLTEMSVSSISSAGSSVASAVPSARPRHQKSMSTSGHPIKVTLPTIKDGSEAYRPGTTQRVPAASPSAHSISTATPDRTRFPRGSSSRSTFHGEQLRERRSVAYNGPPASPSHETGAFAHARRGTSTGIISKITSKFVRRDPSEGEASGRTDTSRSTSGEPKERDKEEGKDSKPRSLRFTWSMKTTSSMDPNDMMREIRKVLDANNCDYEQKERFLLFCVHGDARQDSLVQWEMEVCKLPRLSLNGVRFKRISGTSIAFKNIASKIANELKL
Chain of Serine/threonine-protein kinase 36 (Homo sapiens) (Q9NRP7 whole entry, the tested form may be a part): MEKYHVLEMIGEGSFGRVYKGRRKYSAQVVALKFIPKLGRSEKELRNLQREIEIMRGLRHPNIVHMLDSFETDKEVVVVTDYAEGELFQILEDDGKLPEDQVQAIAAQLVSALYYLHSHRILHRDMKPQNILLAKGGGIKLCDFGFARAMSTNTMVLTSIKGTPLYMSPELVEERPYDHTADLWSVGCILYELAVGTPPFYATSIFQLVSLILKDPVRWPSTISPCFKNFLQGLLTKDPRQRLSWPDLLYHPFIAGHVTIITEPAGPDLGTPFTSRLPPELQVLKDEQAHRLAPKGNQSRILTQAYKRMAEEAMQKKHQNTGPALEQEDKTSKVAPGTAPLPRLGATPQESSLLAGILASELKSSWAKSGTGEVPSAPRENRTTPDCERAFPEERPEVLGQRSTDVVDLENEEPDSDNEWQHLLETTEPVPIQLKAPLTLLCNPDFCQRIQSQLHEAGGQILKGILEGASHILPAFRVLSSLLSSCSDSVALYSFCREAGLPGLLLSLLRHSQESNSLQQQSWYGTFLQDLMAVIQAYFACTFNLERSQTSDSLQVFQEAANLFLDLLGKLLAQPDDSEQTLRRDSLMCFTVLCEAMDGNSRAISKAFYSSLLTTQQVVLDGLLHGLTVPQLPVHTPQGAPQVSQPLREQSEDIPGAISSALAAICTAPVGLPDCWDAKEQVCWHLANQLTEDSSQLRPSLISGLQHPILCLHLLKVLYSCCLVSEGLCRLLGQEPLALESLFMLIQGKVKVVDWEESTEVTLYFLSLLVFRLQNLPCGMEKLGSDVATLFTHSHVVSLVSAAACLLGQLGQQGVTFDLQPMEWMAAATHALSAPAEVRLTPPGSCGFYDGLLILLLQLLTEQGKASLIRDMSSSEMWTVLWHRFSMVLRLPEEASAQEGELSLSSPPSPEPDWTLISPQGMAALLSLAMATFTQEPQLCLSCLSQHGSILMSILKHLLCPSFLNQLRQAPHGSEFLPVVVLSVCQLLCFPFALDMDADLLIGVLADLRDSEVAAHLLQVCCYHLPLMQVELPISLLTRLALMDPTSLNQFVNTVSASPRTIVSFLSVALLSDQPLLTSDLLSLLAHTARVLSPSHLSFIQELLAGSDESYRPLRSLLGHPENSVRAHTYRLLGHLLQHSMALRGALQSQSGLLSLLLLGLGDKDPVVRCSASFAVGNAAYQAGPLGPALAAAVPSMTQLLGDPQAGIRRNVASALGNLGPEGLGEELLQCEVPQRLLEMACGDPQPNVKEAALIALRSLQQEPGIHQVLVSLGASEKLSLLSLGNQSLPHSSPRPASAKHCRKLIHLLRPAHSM
Chain of Cyclin-dependent kinase 11B (Homo sapiens) (P21127 whole entry, the tested form may be a part): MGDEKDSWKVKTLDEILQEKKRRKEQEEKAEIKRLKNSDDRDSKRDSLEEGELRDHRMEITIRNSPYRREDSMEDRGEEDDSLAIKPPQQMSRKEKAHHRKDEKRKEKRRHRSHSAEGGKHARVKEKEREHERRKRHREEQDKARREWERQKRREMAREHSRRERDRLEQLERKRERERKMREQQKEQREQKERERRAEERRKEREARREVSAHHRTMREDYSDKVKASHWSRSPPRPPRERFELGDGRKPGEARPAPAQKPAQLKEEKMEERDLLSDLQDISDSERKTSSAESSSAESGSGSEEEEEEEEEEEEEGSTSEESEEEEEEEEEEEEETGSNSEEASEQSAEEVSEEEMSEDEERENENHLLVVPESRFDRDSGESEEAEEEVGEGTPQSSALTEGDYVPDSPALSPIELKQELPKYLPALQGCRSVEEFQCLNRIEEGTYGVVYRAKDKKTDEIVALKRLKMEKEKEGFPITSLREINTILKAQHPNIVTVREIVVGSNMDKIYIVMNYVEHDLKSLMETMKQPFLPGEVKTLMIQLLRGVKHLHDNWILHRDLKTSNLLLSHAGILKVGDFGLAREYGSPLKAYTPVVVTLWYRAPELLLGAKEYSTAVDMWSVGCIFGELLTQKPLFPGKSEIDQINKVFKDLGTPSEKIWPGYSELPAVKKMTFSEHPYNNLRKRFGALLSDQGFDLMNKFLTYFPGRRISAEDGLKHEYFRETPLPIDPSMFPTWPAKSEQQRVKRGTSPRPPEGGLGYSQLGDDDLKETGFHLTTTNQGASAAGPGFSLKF
Chain of Casein kinase I isoform gamma-3 (Homo sapiens) (Q9Y6M4 whole entry, looked up, the tested form may be a part, canonical isoform): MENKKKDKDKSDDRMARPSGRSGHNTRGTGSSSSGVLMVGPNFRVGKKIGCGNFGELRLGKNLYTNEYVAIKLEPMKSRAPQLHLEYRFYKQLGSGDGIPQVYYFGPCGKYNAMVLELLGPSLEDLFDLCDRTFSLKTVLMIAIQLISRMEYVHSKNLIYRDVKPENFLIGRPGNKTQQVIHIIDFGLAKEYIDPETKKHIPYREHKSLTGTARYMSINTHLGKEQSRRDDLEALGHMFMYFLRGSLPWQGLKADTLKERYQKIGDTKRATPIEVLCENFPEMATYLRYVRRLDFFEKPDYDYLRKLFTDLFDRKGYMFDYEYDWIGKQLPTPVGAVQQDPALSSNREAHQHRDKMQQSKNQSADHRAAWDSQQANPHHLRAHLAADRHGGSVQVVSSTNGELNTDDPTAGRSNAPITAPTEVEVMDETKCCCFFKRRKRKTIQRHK

CC(C)Nc1sc(C(=O)c2ccc(Cl)s2)c(N)c1C#N
Activity [1]: 100%
Activity [2]: 93%
Activity [3]: 95%
Activity [4]: 77%
Activity [5]: 67%
Activity [6]: 88%
Activity [7]: 65%
